The text below walks through data of US12329799B2, “Peptidyl inhibitors of calcineurin-NFAT interaction” (Ohio State Innovation Foundation, priority 2018, dated 2025).

Positions of bridges follow the written chain, without caps; N, C: chain ends. Non-standard residues stand in square brackets, D forms with d. Residues, ends and D or L forms follow the SMILES beside them. Chains are numbered I, II in the order given. *: point of attachment. Benzoyl(2,3-Cl2) = O=C(c1cccc(Cl)c1Cl)*; 2Nal = N[C@@H](Cc1ccc2ccccc2c1)C(=O)O; Tle = CC(C)(C)[C@H](N)C(=O)O; AEEA = NCCOCCOCC(=O)O

The nature of one data set: in vitro. As to conditions: mouse, plasma; for fraction unbound at 5 h: pH 7.4. Type of data set: in vitro ADME. Further details: dose or concentration left out as unconfirmed. As to the method:
(§1) Plasma binding was assessed using mouse plasma obtained from in-life studies. CNI103 was diluted to […] in pre-warmed mouse plasma. The solution was added to the left chamber of a commercial plate based RED (rapid equilibrium dialysis) device. Isotonic sodium phosphate buffer (100 mM sodium phosphate, 100 mM sodium chloride, pH 7.4) was added to the outer chamber of the RED device and the plate was incubated at 37° C. for five hours. Aliquots of the buffer and the plasma were withdrawn before and after the incubation and the concentrations of free and bound test compound were determined by LC/MS/MS analysis. To test for plasma stability, the dosing solution was also incubated at 37° C. for 5 hours and the concentration of CNI103 was determined by LC/MS/MS analysis as described above.
(§2) The calculation of percentage binding is calculated using the following equations and the results are presented in Table 13: Binding %=(Cpe−Cb)/Cpe×100 • Cpe=Conc. of test compound in plasma at equilibrium • Cb=Conc. of test compound in buffer at equilibrium % Stability of test compound=(Conc. of stability sample/Conc. of time zero sample)×100 % Recovery=(Cpe+Cb)/Conc. of stability sample×100

Another data set has as its system plasma protein. The experiment in a line: in vitro. It is filed as in vitro ADME. Further details: dose or concentration left out as unconfirmed. Particulars: mouse, pH 7.4. How it is done:
as §1, §2

In the next data set the test system is Caco-2 cell monolayers. Briefly: Caco-2 permeability assay. It is filed as in vitro ADME. As to the method:
(§3) Caco-2 permeability assay. To assay the permeability of test compounds by Caco-2 cell model, Caco-2 cells were cultured to confluency before being trypsinized and seeded onto filter transwell inserts at a density of 30,000 cells/well in DMEM medium. Cells were cultured in a humidified atmosphere with 5% CO2 at 37° C. After overnight attachment, cell medium was replaced with fresh medium at both apical and basolateral sides every other day. The cell monolayers are ready for the assay 20 days post seeding. […] The dosing solution at 10 μM was obtained by diluting 10 mM stock solution in HBSS medium (pH 7.4, 25 mM HEPES) freshly before the assay. Terfenadine (25 ng/mL) and Tolbutamide (50 ng/mL) were added into dosing solution as internal standards. […] The culture medium from either the basolateral side (plate B) or apical side (plate A) were aspirated and then rinsed with HBSS medium once. Afterwards, the dosing medium was added to either basolateral or apical side. Following the incubation, 100 microliter samples from both sides were harvested at time 0 and time 90 min. Samples were quenched with acetonitrile/methanol (1:1 v/v), centrifuged, and analyzed on a Shimadzu reversed-phase HPLC and Sciex API4500 Q trap instrument.
(§4) Permeability parameters were calculated using the following equations and shown in Table 10: Papp=(Conc.receiver,90 min*Volumereceiver)/(Time*Membrane Area*Conc.donor,0 min) Efflux Ratio=Papp[B to A]/Papp[A to B]
Background: Caco-2 monolayers are a common model of the intestinal barrier.

Data set [1] is described as follows: Caco-2 permeability assay. It is filed as in vitro ADME. Particulars: human, Caco-2, pH 7.4. As to the method:
as §3, §4

Data set [2] has as its system HeLa cells. Particulars: 100% = equal cargo concentration in cytosol and extracellular medium; cited from earlier work.
Data set [3] concerns NFAT-mediated luciferase expression in Jurkat cells. Briefly: NFAT luciferase assay in Jurkat cells. Type of data set: cell-based. Particulars: qualitative. How it is done:
In a separate experiment, CNI93 was also tested against Jurkat cells expressing a luciferase gene under the transcriptional control of NFAT.
NFAT Luciferase Assay. Jurkat-Lucia cells maintained in RPMI-1640 supplemented with 10% FBS, 1% penicillin/streptomycin (v/v/v) and 100 μg/mL normocin were harvested after a passage with 50 μg/mL selective antibiotic Zeocin at 300×RCF for 5 min. Cells were resuspended in warm RPMI-1640 with antibiotics but without FBS to a final density of 2×10^6 cells/mL and seeded into white-on-white cell-culture treated 96-well plates. To each well was added 10 μL of DPBS containing compounds which dilute to the desired concentrations followed by 170 μL of cell suspension […] and incubated at 37° C. for 2 h. The cells were induced by treatment with 50 ng/mL PMA and 3 μg/mL ionomycin, Ca^2+ salt in FBS to achieve a final FBS concentration of 10% in each well (with FBS only as control). The plate was incubated for an additional 4 h at 37° C., when 20 μL of each sample was withdrawn and mixed with 50 μL of Quanti-Luc assay solution. The luminescence of the mixture was immediately measured on a Tecan Infinite M1000 plate reader.

A short description of another data set: Serum stability assay. It is filed as in vitro ADME. Particulars: 25% human serum, 37° C., 24 h, read-out: degradation in human serum. How it is done: Serum Stability Assay. Diluted human serum (25%) (H4522 human serum, Sigma) was centrifuged at 15,000 rpm for 10 min, and the supernatant was collected. A peptide stock solution was diluted into the supernatant to a final concentration of 5 μM and incubated at 37° C. At various time points (0-24 h), 200-μL aliquots were withdrawn and mixed with 100 μL of 15% trichloroacetic acid and incubated at 4° C. overnight. The final mixture was centrifuged at 15,000 rpm for 10 min in a microcentrifuge, and the supernatant was analyzed by reversed-phase HPLC equipped with a C18 column. The amount of remaining peptide (%) was determined by integrating the area underneath the peptide peak (monitored at 214 nm) and comparing with that from the peptide at time 0.

In the next data set the test system is Jurkat cells. The experiment in a line: MTT assay, Jurkat. It is filed as cell-based. As to the method:
(§5) MTT Proliferation Assay. HeLa, Jurkat-Lucia, or H441 cells were seeded into a 96-well microplate (5000 cells per well) in full growth media and incubated at 37° C. overnight. A serial dilution of each compound was prepared in DPBS and then added to each well. The treated cells were incubated at 37° C. with 5% CO2 for 72 h. Following compound treatment, 10 μL of MTT stock solution was added to each well. After an additional 4 h at 37° C., 100 μL of SDS-HCl solubilizing solution was added to each well and the plate was returned to the incubator overnight at 37° C. A Tecan Infinite M1000 Pro microplate reader was used the following morning to measure the absorbance of the formazan product at 565 nm.
A general note: Tetrazolium dyes change colour on reduction, which living cells bring about.

Data set [4] concerns HeLa cells. The experiment in a line: MTT assay, HeLa. It is filed as cell-based. As to conditions: MTT, 72 h. As to the method: as §5
Potential cytotoxicity of CNI101 (SEQ ID NO: 206) and CNI103 (SEQ ID NO: 208) was tested on HeLa cells by the MTT proliferation assay. HeLa cells were seeded into a 96-well microplate (5000 cells per well) in full growth media and incubated at 37° C. overnight. A serial dilution of each inhibitor was prepared in DPBS and then added to each well. The treated cells were incubated at 37° C. with 5% CO2 for 72 h. Following compound treatment, 10 μL of MTT stock solution was added to each well. After an additional 4 h at 37° C., 100 μL of SDS-HCl solubilizing solution was added to each well and the plate was returned to the incubator overnight at 37° C. A Tecan Infinite M1000 Pro microplate reader was used the following morning to measure the absorbance of the formazan product at 565 nm.

For the next data set, the target named is T1, Calcineurin (GST-CN) (Homo sapiens, UniProt Q08209).
T1 construct: made in house; host or cells: E. coli BL21
Briefly: FA-based competition with FITC-labeled peptide 14 for binding to CN. Particulars: unlabeled; inhibition of binding of peptide 14 to CN. How it is done:
Serial dilutions of competitor peptides were prepared in PBS with 0.01% Trition-X100 and then added to the incubation solution and equilibrated at RT with gentle mixing for 1 h. Samples were pipetted into 384-well black microplates and FP signal was measured using a TECAN Infinite M1000 plate reader and analyzed using GraphPad PRISM v.6.

T1 sequence (Q08209 2-347 limits assumed): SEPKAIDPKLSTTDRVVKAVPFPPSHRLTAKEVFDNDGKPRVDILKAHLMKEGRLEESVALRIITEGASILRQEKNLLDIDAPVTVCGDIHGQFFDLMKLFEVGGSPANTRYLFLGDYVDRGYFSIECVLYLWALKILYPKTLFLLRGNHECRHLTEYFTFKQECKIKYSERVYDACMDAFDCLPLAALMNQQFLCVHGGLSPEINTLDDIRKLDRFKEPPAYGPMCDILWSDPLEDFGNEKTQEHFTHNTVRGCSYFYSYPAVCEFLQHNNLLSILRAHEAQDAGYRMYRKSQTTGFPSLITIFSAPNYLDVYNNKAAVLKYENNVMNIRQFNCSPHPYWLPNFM

With `CCOc1ccc(NC(C)=O)cc1` [Phenacetine], in “in vitro”, the fraction remaining at 5 h amounted to 73.8% and the fraction unbound at 5 h was 0.635. The same compound returned a recovery at 5 h with plasma protein of 73.3%.
For the compound `CC(C)NCC(O)COc1cccc2ccccc12` (stereo not drawn) [Propranolol, reference compound], in the data set on Caco-2 cell monolayers, the “Pgp Substrate” value was “No”. Further, the Papp B→A at 90 min, 10 μM in data set [1] (N = 2, 10 μM, 90 min) stood at 26 ×10⁻⁶ cm/s. Besides, the efflux ratio at 90 min, 10 μM in data set [1] (Papp[B to A]/Papp[A to B]) was 0.7.
In the case of `C=C[C@H]1C[N@@]2CC[C@H]1C[C@@H]2[C@@H](O)c1ccnc2ccc(OC)cc12` [Quinidine], in “in vitro”, the fraction remaining at 5 h stood at 107% and the fraction unbound at 5 h is 0.243. The recovery at 5 h in the data set on plasma protein was 102%.
Regarding “cyclic (fΦRrRrQ) (cyclo([dF][2Nal]R[dR]R[dR]Q); SMILES N=C(N)NCCC[C@@H]1NC(=O)[C@H](Cc2ccc3ccccc3c2)NC(=O)[C@@H](Cc2ccccc2)NC(=O)[C@H](CCC(N)=O)NC(=O)[C@@H](CCCNC(=N)N)NC(=O)[C@H](CCCNC(=N)N)NC(=O)[C@@H](CCCNC(=N)N)NC1=O) [CPP9]”, the “absolute cytosolic delivery efficiency” value with HeLa cells [2] is listed as 62%.
As for `CC(=O)CC(c1ccccc1)c1c(O)c2ccccc2oc1=O` (stereo not drawn) [Warfarin], in “in vitro”, the fraction remaining at 5 h was found to be 101% and the fraction unbound at 5 h was 0.086. In the data set with plasma protein, this compound came in with a recovery at 5 h of 103%.
For the compound `CC[C@H](C)[C@H](NC(=O)[C@@H](NC(=O)c1cccc(Cl)c1Cl)C(C)(C)C)C(=O)N[C@H](C(=O)N[C@H](C(=O)N[C@H](C(=O)N[C@@H](CCC(N)=O)C(=O)N[C@@H](Cc1c[nH]cn1)C(=O)N[C@H](CC(C)C)C(=O)N[C@@H](CO)C(=O)NCCOCCOCC(=O)N[C@@H](CCCCNC(=O)CC[C@@H]1NC(=O)[C@@H](CCCNC(=N)N)NC(=O)[C@H](CCCNC(=N)N)NC(=O)[C@@H](CCCNC(=N)N)NC(=O)[C@H](CCCNC(=N)N)NC(=O)[C@H](Cc2ccc3ccccc3c2)NC(=O)[C@@H](Cc2ccccc2)NC1=O)C(N)=O)[C@@H](C)O)[C@@H](C)CC)C(C)(C)C` [CNI95] (I: {Benzoyl(2,3-Cl2)}-[Tle]I[Tle]ITQH[dL]S[AEEA]K-NH2 / II: cyclo([2Nal]R[dR]R[dR]E[dF]); amide I:11-II:6 (inferred); ring closure inferred), the “attenuation of NFAT activity in Jurkat cells relative to CNI93” value in [3] is “vastly superior”. The metabolised at 24 h, 5 μM in “Serum stability assay” is about 12%. The “concentrations decreasing cell viability” value in the data set on Jurkat cells and in the data set with HeLa cells [4] was at least 25 µM in each case. On Calcineurin (GST-CN), the “higher potency than CNI93 in FA-based competition assay” value is listed as about 5 fold.

One may read the fraction unbound as free concentration divided by total concentration. Broadly, the Papp B→A is how fast a substance crosses the layer from the basolateral side. The term efflux ratio denotes the permeability from basolateral to apical divided by that in the opposite direction, in the common usage.
